Results taken from publication PMC9828538, “Antigiardial Activity of Novel Guanidine Compounds” (Chemmedchem, 2022).
“Also recorded” adds a separate entry of the source. Read-outs that look alike come from different tables or passages of the source.

Columns and labels:
[1] = tested on: Giardia duodenalis trophozoites (BAH2c2 strain); test: Resazurin reduction assay on Giardia trophozoites in vitro; assay type: cell-based; details: for Selectivity ratio: higher ratios = more selective
Source text: Biology Materials and Methods:
Metronidazole was sourced from sigma.
Chemicals used for the culture of Giardia in vitro were sourced as follows: glucose and L-cysteine (ACROS organics, Thermo Fisher Scientific, Scoresby, Vic), Ammonium Iron (III) citrate, ascorbic Acid (Sigma -aldrich, Castle Hill, NSW), potassium dihydrogen orthophosphate (UNIVAR, Ingleburn, NSW), bovine bi le (Fluka analytical (BD)), di-potassium hydrogen orthophosphate (Fronine laboratory supplies, Riverstone, NSW).
G. duodenalis (BAH2c2 strain) was cultivated according to the method of Clark and Diamond in Keister’s modified TYI-S-33 medium, supplemented with heat inactivated foetal bovine serum (Hyclone™, Thermo Scientific, Scoresby, Vic) at 37°C in plastic 9 mL screw-capped test tubes (nunc). Subcultures were performed once a confluent monolayer was observed, approximately 2 – 3 times per week (Clark and Diamond, 2002).
(§1) CaCo-2 cells, a human cell line derived from a primary colonic tumour, were sourced from Cellbank Australia and were maintained in MEM supplemented with 2 mM glutamine, 1% non-essential amino acids and 10% FCS (Thermo Scientific). Cells were passaged when confluent, approximately 1-2 times per week. Vero cells were also obtained from Cellbank Australia and maintained as above.
In vitro drug efficacy assays
Resazurin Reduction Assay […]
tested to identify the IC50 and minimum lethal concentration (MLC). For all assays the media of confluent cultures was replaced with fresh media and the cultures were placed on ice for 40 minutes to detach trophozoites.
Trophozoites were enumerated using a haemocytometer and 50 000 trophozoites were added to each test well of a 96 well plate. Either single concentrations (final concentration 25 μM) for the screening assay or tripling dilutions […]
wells. The assays were repeated in triplicate with metronidazole and a DMSO (vehicle only) used as controls. Plates were incubated under anaerobic conditions (anaerogen sachet, Thermofisher scientific) for 5 or 24 hours at 37°C following which the viability of treated cells was determined using the resazurin reduction assay (Benere et al., 2007). The media was removed and replaced with an equal volume of warm PBS. Resazurin (Sigma) was then added at 10% of the total volume of the wells. Plates were further incubated for colour development and absorbance read at 570 nm and 630 nm. Resazurin reduction was calculated according to the following formula: […]
(§2) CaCo-2 or Vero cells, maintained as outlined above, were collected via trypsinisation and enumerated using trypan blue and a haemocytometer. Select analogues were prepared in DMSO so that the final concentration in the assay was 25 μM. 1 X 10^5 cells/ml were added to each assay with the appropriate drug dilution. Assays were completed in 96 well plates and incubated for 24 hours at 37°C, 5% CO2 in a humidified incubator. After incubation cells were […]
(§3) washed with warm PBS before the addition of 10% resazurin in PBS. Assays were incubated to allow colour development and absorbance read at 630 and 570nm. Activity of the analogues against mammalian cells was calculated according to the formula stated above.

CaCo-2 cells = details: human, 24 h, 25 μM
Experimental: Biology Materials and Methods: […]
as §1
In vitro drug efficacy assays […]
2007). The media was removed and replaced with an equal volume of warm PBS. Resazurin (Sigma) was then added at 10% of the total volume of the wells. Plates were further incubated for colour development and absorbance read at 570 nm and 630 nm. Resazurin reduction was calculated according to the following formula: […]
as §2, §3

Giardia duodenalis = test: Washout / growth recovery of Giardia after 5 h exposure; assay type: cell-based; details: 5 h treatment, 48 h post removal
In vivo toxicity in mice = details: per os, 100 mg/kg per day for 3 days, 100 mg/kg/day

| SMILES | IC50 ([1]; Giardia duodenalis, 24 h, read-out: Antigiardial activity IC50 (24 h)) | MIC ([1]; Giardia duodenalis, 24 h, minimum inhibitory concentration, read-out: Antigiardial activity MIC (24 h)) | Selectivity ratio ([1]; toxicity tested at 25 μM vs 24 h IC50, Tables 1-3) | Toxicity (% growth control) (CaCo-2 cells) | Giardia regrowth after compound removal (Giardia duodenalis) | IC50 ([1]; Giardia duodenalis, 5 h, read-out: Antigiardial activity IC50 (5 h)) | time to marked impact on Giardia trophozoites ([1]; data not shown) | Selectivity ratio ([1]; toxicity tested at 25 μM vs 5 h IC50, Table 4) | Tolerability in mice (adverse effects) (In vivo toxicity in mice) |
| --- | --- | --- | --- | --- | --- | --- | --- | --- | --- |
| Cl.N=C(N/N=C/c1ccc(Cl)cc1)N/N=C/c1ccc(Cl)cc1 [Robenidine 4, robenidine, reference compound] | 900 nM | 2.8 µM | >27.8 | 40.7±22.6% | did not result in Giardia regrowth | – | – | – | – |
| COc1cc(Br)c(C=NNC(=N)NN=Cc2cc(OC)c(OC)cc2Br)cc1OC.Cl [Compound 41, 2,2′‐bis[(2‐bromo‐4,5‐dimethoxyphenyl)methylene]carbonimidic dihydrazide hydrochloride] | – | – | – | – | no Giardia regrowth; also recorded: did not result in Giardia regrowth | 200 nM | 1 to 2 h | >125 | well tolerated; also recorded: no adverse effects |
